Results from PubChem BioAssay (NCI).
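Step 1: Grow cells in 96-well plates. Step 2: Expose to compound for 48 hours at 5 concentrations. Step 3: Interpolate endpoints linearly; if unreached, use highest concentration. TGI: concentration producing complete growth inhibition.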

Assays:
Test in all cases: inhibition of tumour cell growth, NCI panel, 48 h
[1] = system: BT-549 breast
[2] = system: HOP-62 NSCLC
[3] = system: KM12 colon
[4] = system: SK-MEL-28 melanoma
[5] = system: SNB-19 CNS
[6] = system: OVCAR-5 ovarian
[7] = system: NCI-H460 lung
[8] = system: SR leukemia
[9] = system: MDA-MB-231 breast
[10] = system: 786-0 renal
[11] = system: MOLT-4 leukemia
[12] = system: M14 melanoma
[13] = system: HOP-92 NSCLC
[14] = system: SW-620 colon
[15] = system: SF-295 CNS
[16] = system: HCC-2998 colon
[17] = system: SNB-75 CNS
[18] = system: SF-268 CNS
[19] = system: NCI-H522 lung
[20] = system: A498 renal

Structure (SMILES) | TGI [1] [µM] | TGI [2] [µM] | TGI [3] [µM] | TGI [4] [µM] | TGI [5] [µM] | TGI [6] [µM] | TGI [7] [µM] | TGI [8] [µM] | TGI [9] [µM] | TGI [10] [µM] | TGI [11] [µM] | TGI [12] [µM] | TGI [13] [µM] | TGI [14] [µM] | TGI [15] [µM] | TGI [16] [µM] | TGI [17] [µM] | TGI [18] [µM] | TGI [19] [µM] | TGI [20] [µM]
O=S1(=O)OCCOS(=O)(=O)C1S(=O)(=O)c1ccc2ccccc2c1 | > 100 | > 100 | > 100 | > 100 | > 100 | > 100 | > 100 | > 100 | > 100 | > 100 | > 100 | > 100 | > 100 | > 100 | > 100 | > 100 | – | – | – | –
Fc1ccc(Oc2nc3ccc(C(F)(F)F)cc3nc2-c2ccccc2)cc1 | > 100 | > 100 | > 100 | – | > 100 | > 100 | > 100 | 70.9 | > 100 | > 100 | > 100 | > 100 | – | > 10 | > 100 | 35.5 | > 100 | > 100 | > 100 | –
COc1ccc(/C=C2\CCC(CNc3ccc(S(N)(=O)=O)cc3)C2=O)cc1 (stereo unspecified) | 33.9 | > 85.6 | 31.3 | 34.7 | > 65.9 | 42.6 | > 77.2 | – | 35.5 | 11.2 | > 44.2 | 36.4 | 22.5 | 19.3 | > 100 | > 100 | 76.2 | 54.4 | 10.6 | > 86
COC(=O)C1=C(C)C(=O)[C@]23C(CCCC[C@H]12)C(=O)[C@H](C(=O)OC)C3C (stereo partly specified) | > 100 | > 100 | > 100 | > 100 | > 100 | > 100 | > 100 | > 100 | > 100 | > 100 | > 100 | > 100 | > 100 | > 100 | > 100 | > 100 | – | > 100 | > 100 | –
CC(=O)OCCCC(NC(=O)OC(C)(C)C)C(=O)NC(CCCOC(C)=O)C(=O)NC(Cc1ccc([N+](=O)[O-])cc1)C(=O)NCC(=O)OCc1ccccc1 (stereo unspecified) | 32.6 | 34.8 | 29 | 31.9 | 32.9 | 31.4 | 29.5 | 44.6 | 27.3 | 31.9 | > 100 | 25.6 | 42.1 | 31.1 | 24.4 | 33.4 | – | 35.6 | 32.3 | –
c1cncc(C2(c3cc4ccccc4[nH]3)COCO2)c1 (stereo unspecified) | > 100 | > 100 | > 100 | > 100 | > 100 | > 100 | > 100 | > 100 | > 100 | > 100 | > 100 | > 100 | > 100 | > 100 | > 100 | > 100 | > 100 | > 100 | – | –
COC(=O)C1=C(C)NC(C)=C(C(=O)OC)C1c1ccccc1NO | > 100 | > 100 | > 100 | > 100 | > 100 | > 100 | > 100 | > 100 | > 100 | > 100 | > 100 | > 100 | > 100 | > 100 | > 100 | > 100 | – | > 100 | > 100 | > 100
O=c1c2ccccc2nc(-c2cc3c(cc2Cl)Sc2nccn2S3(=O)=O)n1-c1ccccc1 | > 100 | 35.7 | 24.7 | 41.8 | > 100 | > 100 | > 100 | > 100 | 38.2 | 94.6 | > 100 | > 100 | 58.5 | 47.5 | 52.9 | 31 | 52.2 | 22.2 | > 100 | –
O=C1N=C(SC(SC2=NC(=O)C3(NN2)c2ccccc2-c2ccccc23)=C(SC2=NC(=O)C3(NN2)c2ccccc2-c2ccccc23)SC2=NC(=O)C3(NN2)c2ccccc2-c2ccccc23)NNC12c1ccccc1-c1ccccc12 | > 10 | > 10 | > 10 | > 10 | > 10 | – | > 10 | > 10 | > 10 | > 10 | 2.95 | > 10 | > 10 | > 10 | > 10 | > 10 | > 10 | > 10 | > 10 | –
O=C(O)Cc1c(-c2ccc([N+](=O)[O-])cc2)c(=O)oc2cc(O)ccc12 | 59.1 | – | 93.5 | > 100 | > 100 | 98.9 | > 100 | > 100 | > 100 | > 100 | 26.8 | > 100 | – | > 100 | 49.9 | 55.5 | – | > 100 | 91.3 | 70.2
CN1C2=C(CC3=C1CC(C)(C)CC3=O)C(=O)CC(C)(C)C2 | > 100 | – | > 100 | > 100 | > 100 | > 100 | > 100 | > 100 | – | > 100 | > 100 | > 100 | > 100 | > 100 | – | > 100 | > 100 | > 100 | – | > 100
C=C[C@@]1(C)CC[C@@H]2[C@@]3(C1)O[C@H]3CC1[C@](C)(C(=O)OC)CCC[C@@]12C (stereo partly specified) | 67.2 | 40.6 | > 100 | 42.1 | 30.3 | 32.3 | 31.3 | – | 58.1 | 36.8 | 42.2 | 39.7 | 33.8 | 41.9 | 29.3 | 31.6 | > 100 | 38.4 | 31.6 | > 100
CCN(C(=O)N[C@@H](Cc1ccccc1)C(=O)N[C@@H](CC(C)C)C(=O)OC)c1ccccc1 | > 100 | 70.6 | > 100 | 32.6 | > 100 | 66.6 | 24.9 | 23.9 | > 100 | 40.5 | 44.2 | 21.9 | 59.5 | 75 | 84.3 | > 100 | – | – | 22.6 | –
